tested on: human hepatocytes; experiment: Human Hepatocyte Stability Assay; type: in vitro ADME; details: comparison table with known compounds; head prints "(units)", L/hr/kg from the method
Method: The human […] stability of the compounds as predicted hepatocyte clearance in L/hr/kg was assessed. Compounds to be tested were diluted to 200 μM (4 μl of 10 mM DMSO stock into 196 μl ACN:H2O (50:50). Propranolol was used as a positive control, and buffer only without hepatocytes as 0% control. These were further diluted 4 μl with 891 μl KHB buffer (InVitroGRO catalog number Z99074) to provide 2× dosing solution. To each well of 24 well plate, 250 μl of the 2× dosing solution was added to each well with 250 μl of hepatocytes cells (1×10^6 viable cells/ml per well) or KHB for control samples to achieve a final compound concentration of 1 μM during incubation. The final solvent concentration was 0.01% DMSO and 0.25% ACN. The culture plate was placed on a rocker and incubated at 37° C., 5% CO2. Samples were collected at time 0, 1, 3, and 6 hours. The loss of parent compound was determined using LC-MS methods against a standard curve.

Q: How did the “Hheps CL” value turn out when `COc1ccc(Nc2nc(-c3cccc(N)c3)cn3ccnc23)cc1OC` [6-(3-aminophenyl)-N-(3,4-dimethoxyphenyl)imidazo[1,2-a]pyrazin-8-amine, reference compound] was run?
A: 4 mL/min/kg

Q: With `Cc1ncc(-c2cn3ccnc3c(Nc3ccc(N4CCOCC4)cc3)n2)cc1N` [6-(5-amino-6-methylpyridin-3-yl)-N-(4-morpholinophenyl)imidazo[1,2-a]pyrazin-8-amine, reference compound] as the compound, how does the “Hheps CL” value read?
A: 13.3 mL/min/kg

Q: With `Nc1cncc(-c2cn3ccnc3c(Nc3ccc(N4CCOCC4)cc3)n2)c1` [6-(5-aminopyridin-3-yl)-N-(4-morpholinophenyl)imidazo[1,2-a]pyrazin-8-amine, reference compound] as the compound, how does the “Hheps CL” value read?
A: 11.3 mL/min/kg

Q: `COc1ccc(Nc2nc(-c3ccc(N)nc3)cn3ccnc23)cc1OC` [6-(6-aminopyridin-3-yl)-N-(3,4-dimethoxyphenyl)imidazo[1,2-a]pyrazin-8-amine, reference compound] was tested. Which “Hheps CL” value did it give?
A: 15 mL/min/kg

Q: How did the “Hheps CL” value turn out when `Cc1ncc(-c2cn3ccnc3c(Nc3ccc(N4CCN(C5COC5)CC4)cc3)n2)nc1N` [Ex.-1, 6-(6-amino-5-methylpyrazin-2-yl)-N-(4-(4-(oxetan-3-yl)piperazin-1-yl)phenyl)imidazo[1,2-a]pyrazin-8-amine] was run?
A: 2 mL/min/kg

Q: Which “Hheps CL” value does the source give for `Nc1cncc(-c2cn3ccnc3c(Nc3ccc(N4CCN(C5COC5)CC4)cc3)n2)n1` [Ex.-2, 6-(6-aminopyrazin-2-yl)-N-(4-(4-(oxetan-3-yl)piperazin-1-yl)phenyl)imidazo[1,2-a]pyrazin-8-amine] here?
A: 0.917 mL/min/kg

Q: How did the “Hheps CL” value turn out when `Nc1cncc(-c2cn3ccnc3c(Nc3ccc(N4CCO[C@@H](CO)C4)cc3)n2)n1` [Ex.-3, (R)-(4-(4-((6-(6-aminopyrazin-2-yl)imidazo[1,2-a]pyrazin-8-yl)amino)phenyl)morpholin-2-yl)methanol] was run?
A: 1.5 mL/min/kg

Q: Which “Hheps CL” value does the source give for `Cc1c(-c2cncc(N)n2)nc(Nc2ccc(N3CCN(C4COC4)CC3)cc2)c2nccn12` [Ex.-4, 6-(6-aminopyrazin-2-yl)-5-methyl-N-(4-(4-(oxetan-3-yl)piperazin-1-yl)phenyl)imidazo[1,2-a]pyrazin-8-amine] here?
A: 1.3 mL/min/kg

Q: With `Nc1cncc(-c2cn3ccnc3c(Nc3ccc(N4CCN(C5COC5)CC4)c(OCCO)c3)n2)n1` [Ex.-5, 2-(5-((6-(6-aminopyrazin-2-yl)imidazo[1,2-a]pyrazin-8-yl)amino)-2-(4-(oxetan-3-yl)piperazin-1-yl)phenoxy)ethanol] as the compound, how does the “Hheps CL” value read?
A: 1.2 mL/min/kg

Q: How did the “Hheps CL” value turn out when `Nc1cncc(-c2cn3ccnc3c(Nc3ccc(N4CCN(CC(CO)CO)CC4)cc3)n2)n1` [Ex.-6, 2-((4-(4-((6-(6-aminopyrazin-2-yl)imidazo[1,2-a]pyrazin-8-yl)amino)phenyl)piperazin-1-yl)methyl)propane-1,3-diol] was run?
A: 1.3 mL/min/kg

Q: With `Cc1ncc(-c2cn3ccnc3c(Nc3ccc(N4CCN(C5COC5)CC4)c(OCCO)c3)n2)nc1N` [Ex.-7, 2-(5-((6-(6-amino-5-methylpyrazin-2-yl)imidazo[1,2-a]pyrazin-8-yl)amino)-2-(4-(oxetan-3-yl)piperazin-1-yl)phenoxy)ethanol] as the compound, how does the “Hheps CL” value read?
A: 0.83 mL/min/kg

From patent US11517570B2 (Kronos Bio, Inc., priority 2013, dated 2022)
